Measured values as given in BindingDB's records for doi:10.1021/acs.jmedchem.0c00870 (Tu Dortmund University, 2020).

How the values were obtained:
[1] = Inhibiton of EGFR L858R/T790M mutant (unknown origin) expressed in human NCI-H1975 cells assessed as reduction in EGFR induced cell viability after 96 hrs by CellTiter-Glo assay
[2] = Inhibiton of EGFR (unknown origin) expressed in human A431 cells assessed as reduction in EGFR induced cell viability after 96 hrs by CellTiter-Glo assay

In the case of C=CC(=O)Nc1cc(-c2c[nH]c3ncnc(Nc4ccc(OCc5ccccn5)c(Cl)c4)c23)ccc1OCCN(C)C, the IC50 [1] is reported as 0.807 µM and the IC50 [2] is reported as 0.862 µM.

C=CC(=O)Nc1cccc(-c2c[nH]c3ncnc(Nc4ccc(CN5C(=O)c6ccccc6C5=O)cc4)c23)c1 showed an IC50 [1] of 2.66 µM and an IC50 [2] of 1.57 µM.

C=CC(=O)Nc1cccc(-c2c[nH]c3ncnc(Nc4ccc(OCc5ccccn5)c(Cl)c4)c23)c1 gave an IC50 [1] of 0.739 µM and an IC50 [2] of 1.68 µM.

Work on C=CC(=O)Nc1cc(-c2c[nH]c3ncnc(Nc4ccc5c(cnn5Cc5ccccc5)c4)c23)ccc1OCCO yielded an IC50 [2] of 2.24 µM.
